According to ChEMBL document CHEMBL6177968, “Development of sulfamoylbenzamide-based capsid assembly modulators for hepatitis B virus capsid assembly” (Eur J Med Chem, 2025):

Legend:
Hepatitis B virus [1] = test: Antiviral activity against HBV in human HepG2.2.15 cells assessed as reduction in viral replication incubated for 5 days by real-time PCR analysis; type: functional, organism-based; details: HepG2.2.15, 120 h
[2] = Cytotoxicity in human HepG2.2.15 cells assessed as reduction in cell viability; type: toxicity, cell-based, HepG2 2.2.15
[3] = Selectivity index, ratio of CC50 for cytotoxicity in human HepG2.2.15 cells assessed as reduction in cell viability to EC50 for antiviral activity against HBV in human HepG2.2.15 cells assessed as reduction in viral replication; type: toxicity, cell-based; details: read-out: Ratio CC50/EC50
[4] = Metabolic stability in mouse liver microsomes assessed as compound remaining measured after 30 mins; type: ADME, Microsome; details: read-out: Stability
[5] = Metabolic stability in rat liver microsomes assessed as compound remaining measured after 30 mins; type: ADME, Microsome; details: read-out: Stability
[6] = Metabolic stability in human liver microsomes assessed as compound remaining measured after 30 mins; type: ADME, Microsome; details: read-out: Stability
[7] = Stability in mouse plasma assessed as compound remaining incubated for 4 hrs; type: ADME, cell-free; details: read-out: Stability
[8] = Stability in human plasma assessed as compound remaining incubated for 4 hrs; type: ADME, cell-free; details: read-out: Stability
[9] = Plasma protein binding in mouse; type: ADME, cell-free; details: read-out: PPB (converted)
[10] = Plasma protein binding in human; type: ADME, cell-free; details: read-out: PPB (converted)
[11] = Cytotoxicity in African green monkey Vero cells; type: toxicity, cell-based, Chlorocebus sabaeus
[12] = Cytotoxicity in HFL1 cells; type: toxicity, cell-based; details: human
[13] = Cytotoxicity in mouse L929 cells; type: toxicity, cell-based
[14] = Cytotoxicity in mouse NIH3T3 cells; type: toxicity, cell-based
[15] = Cytotoxicity in CHO-K1 cells; type: toxicity, cell-based, Cricetulus griseus; details: Chinese hamster
Cytochrome P450 1A2 = target: T1, Cytochrome P450 1A2 (Homo sapiens, UniProt P05177); test: Inhibition of CYP1A2 in human liver microsome; type: ADME, microsomes
T1 sequence (P05177 whole entry): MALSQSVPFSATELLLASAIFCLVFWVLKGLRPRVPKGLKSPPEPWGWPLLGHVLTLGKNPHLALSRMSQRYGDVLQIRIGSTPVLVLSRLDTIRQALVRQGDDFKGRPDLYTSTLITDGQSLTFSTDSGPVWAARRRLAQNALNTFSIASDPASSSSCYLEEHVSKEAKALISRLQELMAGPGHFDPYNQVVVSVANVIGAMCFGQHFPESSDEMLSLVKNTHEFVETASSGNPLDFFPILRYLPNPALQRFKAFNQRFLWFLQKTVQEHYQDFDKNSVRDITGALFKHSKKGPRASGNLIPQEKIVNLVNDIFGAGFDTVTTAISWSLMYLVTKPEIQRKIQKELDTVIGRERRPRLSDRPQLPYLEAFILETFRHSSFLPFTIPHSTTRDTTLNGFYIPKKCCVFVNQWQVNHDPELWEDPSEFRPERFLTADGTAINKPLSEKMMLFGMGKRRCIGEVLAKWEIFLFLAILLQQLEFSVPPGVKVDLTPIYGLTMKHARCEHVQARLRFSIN

Cytochrome P450 2C9 = Cytochrome P450 2C9 (Homo sapiens, UniProt P11712); test: Inhibition of CYP2C9 in human liver microsome; type: ADME, microsomes
Chain of Cytochrome P450 2C9 (P11712 whole entry): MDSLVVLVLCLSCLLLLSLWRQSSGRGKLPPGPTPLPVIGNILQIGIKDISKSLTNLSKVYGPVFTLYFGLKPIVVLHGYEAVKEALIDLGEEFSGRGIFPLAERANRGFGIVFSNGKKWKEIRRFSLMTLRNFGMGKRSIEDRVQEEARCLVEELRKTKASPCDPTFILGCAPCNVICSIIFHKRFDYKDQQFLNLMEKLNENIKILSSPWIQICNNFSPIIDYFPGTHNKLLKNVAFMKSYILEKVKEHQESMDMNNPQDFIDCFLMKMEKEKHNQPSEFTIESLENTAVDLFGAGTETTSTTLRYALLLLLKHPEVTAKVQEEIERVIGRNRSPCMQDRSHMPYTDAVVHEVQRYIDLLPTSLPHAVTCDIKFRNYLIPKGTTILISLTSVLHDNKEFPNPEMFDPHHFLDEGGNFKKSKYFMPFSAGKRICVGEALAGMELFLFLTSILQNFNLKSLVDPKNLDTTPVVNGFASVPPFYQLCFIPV

Cytochrome P450 2C19 = Cytochrome P450 2C19 (Homo sapiens, UniProt P33261); test: Inhibition of CYP2C19 in human liver microsome; type: ADME, microsomes
Chain of Cytochrome P450 2C19 (P33261 whole entry): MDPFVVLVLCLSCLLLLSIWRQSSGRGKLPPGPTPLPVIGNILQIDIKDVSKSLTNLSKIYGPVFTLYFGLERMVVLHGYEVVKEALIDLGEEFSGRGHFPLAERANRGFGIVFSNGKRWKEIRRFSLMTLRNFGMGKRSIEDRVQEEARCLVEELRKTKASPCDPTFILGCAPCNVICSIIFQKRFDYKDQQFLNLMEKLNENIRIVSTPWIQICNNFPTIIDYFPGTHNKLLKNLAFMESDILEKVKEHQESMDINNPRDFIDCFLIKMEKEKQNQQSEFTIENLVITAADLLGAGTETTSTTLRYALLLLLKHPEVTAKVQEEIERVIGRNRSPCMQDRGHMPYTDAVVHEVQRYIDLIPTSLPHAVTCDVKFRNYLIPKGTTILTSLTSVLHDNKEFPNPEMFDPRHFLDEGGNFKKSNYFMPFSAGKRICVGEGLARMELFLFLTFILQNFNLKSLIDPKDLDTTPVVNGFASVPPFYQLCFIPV

Cytochrome P450 2D6 = Cytochrome P450 2D6 (Homo sapiens, UniProt P10635); test: Inhibition of CYP2D6 in human liver microsome; type: ADME, microsomes
Chain of Cytochrome P450 2D6 (P10635 whole entry): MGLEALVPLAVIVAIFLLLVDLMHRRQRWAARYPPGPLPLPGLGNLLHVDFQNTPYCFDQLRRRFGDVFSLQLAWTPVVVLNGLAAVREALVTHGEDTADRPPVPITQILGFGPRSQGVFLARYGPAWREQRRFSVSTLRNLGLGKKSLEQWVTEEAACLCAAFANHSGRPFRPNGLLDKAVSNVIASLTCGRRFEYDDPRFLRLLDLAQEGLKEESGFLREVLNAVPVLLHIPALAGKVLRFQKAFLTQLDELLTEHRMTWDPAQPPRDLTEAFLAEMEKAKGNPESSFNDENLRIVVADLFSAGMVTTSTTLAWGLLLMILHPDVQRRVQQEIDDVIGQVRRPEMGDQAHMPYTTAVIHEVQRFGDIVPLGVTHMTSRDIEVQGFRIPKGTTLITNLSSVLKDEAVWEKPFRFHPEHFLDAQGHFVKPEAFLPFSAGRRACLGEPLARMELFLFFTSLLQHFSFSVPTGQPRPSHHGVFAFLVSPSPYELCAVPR

Cytochrome P450 3A4 = Cytochrome P450 3A4 (Homo sapiens, UniProt P08684); test: Inhibition of CYP3A4 in human liver microsome; type: ADME, microsomes
Chain of Cytochrome P450 3A4 (P08684 whole entry): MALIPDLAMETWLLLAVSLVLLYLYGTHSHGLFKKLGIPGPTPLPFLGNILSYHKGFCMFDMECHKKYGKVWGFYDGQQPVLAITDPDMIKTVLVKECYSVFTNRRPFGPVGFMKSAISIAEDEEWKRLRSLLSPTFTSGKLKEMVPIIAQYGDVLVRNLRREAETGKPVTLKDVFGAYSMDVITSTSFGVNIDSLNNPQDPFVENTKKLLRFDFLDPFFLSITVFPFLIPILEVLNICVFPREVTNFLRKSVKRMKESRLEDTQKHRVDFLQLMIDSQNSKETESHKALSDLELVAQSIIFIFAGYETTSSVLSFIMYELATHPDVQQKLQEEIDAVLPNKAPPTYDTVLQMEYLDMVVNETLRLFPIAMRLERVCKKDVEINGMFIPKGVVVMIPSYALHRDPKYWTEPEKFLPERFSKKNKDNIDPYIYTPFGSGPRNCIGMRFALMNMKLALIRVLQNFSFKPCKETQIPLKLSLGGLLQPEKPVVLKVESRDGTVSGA

[16] = target: Voltage-gated inwardly rectifying potassium channel KCNH2 (Homo sapiens, UniProt Q12809); test: Inhibition of human ERG; type: toxicity
Chain of Voltage-gated inwardly rectifying potassium channel KCNH2 (Q12809 whole entry): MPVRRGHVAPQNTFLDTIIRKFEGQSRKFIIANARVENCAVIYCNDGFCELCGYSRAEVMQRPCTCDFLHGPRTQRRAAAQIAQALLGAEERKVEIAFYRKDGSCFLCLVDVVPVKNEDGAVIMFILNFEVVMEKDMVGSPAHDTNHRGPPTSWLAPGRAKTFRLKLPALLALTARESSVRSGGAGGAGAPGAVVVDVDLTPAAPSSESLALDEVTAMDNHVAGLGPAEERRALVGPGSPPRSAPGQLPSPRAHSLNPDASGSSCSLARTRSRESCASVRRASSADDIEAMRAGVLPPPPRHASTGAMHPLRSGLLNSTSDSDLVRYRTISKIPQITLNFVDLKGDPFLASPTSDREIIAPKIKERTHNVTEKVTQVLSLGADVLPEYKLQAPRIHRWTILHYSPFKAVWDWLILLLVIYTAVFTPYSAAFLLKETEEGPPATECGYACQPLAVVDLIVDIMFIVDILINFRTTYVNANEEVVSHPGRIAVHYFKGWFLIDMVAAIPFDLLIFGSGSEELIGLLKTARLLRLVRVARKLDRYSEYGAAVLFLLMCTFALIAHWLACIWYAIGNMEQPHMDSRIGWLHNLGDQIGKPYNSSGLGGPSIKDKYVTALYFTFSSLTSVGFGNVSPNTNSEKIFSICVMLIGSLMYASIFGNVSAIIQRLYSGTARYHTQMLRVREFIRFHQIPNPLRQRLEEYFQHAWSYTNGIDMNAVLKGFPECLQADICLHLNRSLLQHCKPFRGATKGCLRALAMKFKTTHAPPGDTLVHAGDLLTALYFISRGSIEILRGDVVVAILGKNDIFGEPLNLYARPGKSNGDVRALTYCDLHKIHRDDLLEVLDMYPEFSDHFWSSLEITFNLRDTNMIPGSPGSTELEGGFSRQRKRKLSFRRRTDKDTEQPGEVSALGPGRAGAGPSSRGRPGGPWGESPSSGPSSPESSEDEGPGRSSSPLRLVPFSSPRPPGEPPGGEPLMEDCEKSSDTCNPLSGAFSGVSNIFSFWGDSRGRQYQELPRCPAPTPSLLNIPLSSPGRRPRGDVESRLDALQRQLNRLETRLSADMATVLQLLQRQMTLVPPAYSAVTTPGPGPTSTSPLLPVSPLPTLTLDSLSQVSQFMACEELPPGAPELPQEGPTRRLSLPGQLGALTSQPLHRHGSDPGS

Hepatitis B virus [17] = test: Antiviral activity against HBV in human HepG2 cells expressing NTCP assessed as reduction in viral replication; type: functional, organism-based
Hepatitis B virus [18] = test: Antiviral activity against HBV in human HepaRG cells assessed as reduction in viral replication; type: functional, organism-based
[19] = Cytotoxicity in human HepG2-hNTCP cells assessed as reduction in cell viability; type: toxicity, cell-based
[20] = Cytotoxicity in human HepaRG cells assessed as reduction in cell viability; type: toxicity, cell-based
[21] = Selectivity index, ratio of CC50 for cytotoxicity in human HepG2-hNTCP cells assessed as reduction in cell viability to EC50 for antiviral activity against HBV in human HepG2-hNTCP cells assessed as reduction in viral replication; type: toxicity, cell-based; details: read-out: Ratio CC50/EC50
[22] = Selectivity index, ratio of CC50 for cytotoxicity in human HepaRG cells assessed as reduction in cell viability to EC50 for antiviral activity against HBV in human HepaRG cells assessed as reduction in viral replication; type: toxicity, cell-based; details: read-out: Ratio CC50/EC50
[23] = Half life in male mouse at 5 mg/kg, iv; type: ADME, organism-based; details: in vivo
[24] = AUClast in male mouse at 5 mg/kg, iv; type: ADME, organism-based; details: in vivo
[25] = AUC (0 to infinity) in male mouse at 5 mg/kg, iv; type: ADME, organism-based; details: in vivo
[26] = Clearance in male mouse at 5 mg/kg, iv; type: ADME, organism-based; details: in vivo
[27] = Volume of distribution at steady state in male mouse at 5 mg/kg, iv; type: ADME, organism-based; details: in vivo, read-out: Vdss
[28] = Half life in male mouse at 20 mg/kg, iv; type: ADME, organism-based; details: in vivo
[29] = AUClast in male mouse at 20 mg/kg, iv; type: ADME, organism-based; details: in vivo
[30] = AUC (0 to infinity) in male mouse at 20 mg/kg, iv; type: ADME, organism-based; details: in vivo
[31] = Clearance in male mouse at 20 mg/kg, iv; type: ADME, organism-based; details: in vivo
[32] = Volume of distribution at steady state in male mouse at 20 mg/kg, iv; type: ADME, organism-based; details: in vivo, read-out: Vdss
[33] = Tmax in male mouse at 5 mg/kg, po; type: ADME, organism-based; details: in vivo
[34] = Cmax in male mouse at 5 mg/kg, po; type: ADME, organism-based; details: in vivo
[35] = Half life in male mouse at 5 mg/kg, po; type: ADME, organism-based; details: in vivo
[36] = AUClast in male mouse at 5 mg/kg, po; type: ADME, organism-based; details: in vivo
[37] = AUC (0 to infinity) in male mouse at 5 mg/kg, po; type: ADME, organism-based; details: in vivo
[38] = Oral bioavailability in male mouse at 5 mg/kg; type: ADME, organism-based; details: in vivo
[39] = Tmax in male mouse at 20 mg/kg, po; type: ADME, organism-based; details: in vivo
[40] = Cmax in male mouse at 20 mg/kg, po; type: ADME, organism-based; details: in vivo
[41] = Half life in male mouse at 20 mg/kg, po; type: ADME, organism-based; details: in vivo
[42] = AUClast in male mouse at 20 mg/kg, po; type: ADME, organism-based; details: in vivo
[43] = AUC (0 to infinity) in male mouse at 20 mg/kg, po; type: ADME, organism-based; details: in vivo
[44] = Oral bioavailability in male mouse at 20 mg/kg; type: ADME, organism-based; details: in vivo
Hepatitis B virus [45] = test: Antiviral activity against HBV infected in human HepG2 cells expressing NTCP assessed as viral DNA replication at 1 uM incubated for 6 days by Southern blot analysis (reference value: 100 %); type: functional; details: time 6 day
Hepatitis B virus [46] = test: Antiviral activity against HBV infected in human HepG2 cells expressing NTCP assessed as fold reduction in capsid associated viral DNA level at 1 uM incubated for 6 days by Southern blot analysis relative to control; type: functional; details: time 6 day
Hepatitis B virus [47] = test: Antiviral activity against HBV infected in human HepG2 cells expressing NTCP assessed as capsid level at 1 uM incubated for 6 days by Western blot analysis (reference value: 100 %); type: functional; details: time 6 day
Hepatitis B virus [48] = test: Antiviral activity against HBV infected in human HepG2 cells expressing NTCP assessed as capsid associated HBV DNA level at 1 uM incubated for 6 days by Western blot analysis (reference value: 100 %); type: functional; details: time 6 day
HepG2 [49] = test: Effect on viral rcDNA level in human HepG2 cells expressing NTCP infected with HBV at 1 uM incubated for 6 days by Southern blot analysis; type: functional, cell-based; details: time 6.0 day
HepG2 [50] = test: Effect on viral dslDNA level in human HepG2 cells expressing NTCP infected with HBV at 1 uM incubated for 6 days by Southern blot analysis; type: functional, cell-based; details: time 6.0 day
HepG2 [51] = test: Effect on viral ssDNA level in human HepG2 cells expressing NTCP cells infected with HBV at 1 uM incubated for 6 days by Southern blot analysis; type: functional, cell-based; details: time 6.0 day
Hepatitis B virus [52] = test: Antiviral activity against HBV infected in human HepG2 cells expressing NTCP assessed as fold increase in intracellular capsid level at 1 uM incubated for 6 days by Western blot analysis relative to control; type: functional; details: time 6 day
Hepatitis B virus [53] = test: Antiviral activity against HBV infected in human HepG2 cells expressing NTCP assessed as decrease in intracellular HBc level at 1 uM incubated for 6 days by indirect immunofluorescence staining based analysis; type: functional, organism-based; details: time 6.0 day
Hepatitis B virus [54] = test: Antiviral activity against HBV infected in human HepG2 cells expressing NTCP assessed as intracellular HBc level at 1 uM incubated for 6 days by Western blot analysis (reference value: 100 %); type: functional; details: time 6 day
Hepatitis B virus [55] = test: Antiviral activity against HBV infected in human HepG2 cells expressing NTCP assessed as ratio of capsid associated HBV DNA level at 1 uM incubated for 6 days by Western blot analysis (reference value: 100 %); type: functional; details: time 6 day

Nc1cc(F)c(S(=O)(=O)N[C@H]2CNC2=O)cc1C(=O)Nc1ccc(F)c(C(F)F)c1
EC50 (Hepatitis B virus [1]): 0.12 µM
CC50 [2]: 173 µM
selectivity ratio [3]: 1420
remaining at 0.5 h [4]: 49%
remaining at 0.5 h [5]: 51%
remaining at 0.5 h [6]: 66.9%
remaining at 4 h [7]: 43.2%
remaining at 4 h [8]: 85.4%
fraction unbound [9]: 0.0555
fraction unbound [10]: 0.115
IC50 [11]: > 100 µM
IC50 [12]: > 100 µM
IC50 [13]: > 100 µM
IC50 [14]: > 100 µM
IC50 [15]: > 100 µM
IC50 (Cytochrome P450 1A2): > 100 µM
IC50 (Cytochrome P450 2C9): 31.1 µM
IC50 (Cytochrome P450 2C19): 44.5 µM
IC50 (Cytochrome P450 2D6): 29.9 µM
IC50 (Cytochrome P450 3A4): 26.1 µM
IC50 [16]: > 10 µM
EC50 (Hepatitis B virus [17]): 0.11 µM
EC50 (Hepatitis B virus [18]): 0.55 µM
CC50 [19]: > 100 µM
CC50 [20]: > 100 µM
selectivity ratio [21]: > 909
selectivity ratio [22]: > 182
half-life [23]: 2.37 h
AUC(0-t) [24]: 2390 ng·h/mL
AUC(0-inf) [25]: 2400 ng·h/mL
clearance [26]: 35.2 mL/min/kg
Vd [27]: 2.95 L/kg
half-life [28]: 5.15 h
AUC(0-t) [29]: 6880 ng·h/mL
AUC(0-inf) [30]: 6950 ng·h/mL
clearance [31]: 50.5 mL/min/kg
Vd [32]: 4.16 L/kg
Tmax [33]: 0.5 h
Cmax [34]: 280 ng/mL
half-life [35]: 2.8 h
AUC(0-t) [36]: 620 ng·h/mL
AUC(0-inf) [37]: 620 ng·h/mL
bioavailability [38]: 26%
Tmax [39]: 0.33 h
Cmax [40]: 900 ng/mL
half-life [41]: 5.52 h
AUC(0-t) [42]: 1510 ng·h/mL
AUC(0-inf) [43]: 1600 ng·h/mL
bioavailability [44]: 21.9%
Activity (Hepatitis B virus [45]): 13%
fold change (FC) (Hepatitis B virus [46]): 8
Activity (Hepatitis B virus [47]): 183%
Activity (Hepatitis B virus [48]): 19%
Activity (HepG2 [49]): No effect
Activity (HepG2 [50]): No effect
Activity (HepG2 [51]): No effect
fold change (FC) (Hepatitis B virus [52]): ~2
Activity (Hepatitis B virus [53]): Active; Compound Modestly Decreased Hbc Level
Activity (Hepatitis B virus [54]): 129%
Ratio (Hepatitis B virus [55]): 10%
